Patent US20260216359A1, “CYCLIC PEPTIDE-BASED LYSOSOME TARGETING DEGRADERS” (Wisconsin Alumni Research Foundation, priority 2023, published 2026)

What was measured:
anti-biotin-647 = test: lysosomal degradation of anti-biotin-647 in MCF7 cells, in gel fluorescence; format: cell-based; settings: 25 nM Ab-cRGD and 50 nM anti-biotin-647 for 3 h, then 50 nM BAF1 for 3 h
Experimental: MCF7 cells were seeded in a 48-well plate at 70% confluence and maintained in 200 μL complete culture media. Next day, cells were incubated with 25 nM of Ab-cRGD and 50 nM of anti-biotin-647 for 3 h followed by three washes with PBS. Cells were then maintained in fresh media with or without 50 nM Bafilomycin A1 (BAF1) for another 3 h before harvested for in gel fluorescence analysis.

EGFR = test: inhibition of Ctx-PEG12-cRGD-induced EGFR degradation in MCF7 cells, western blot; format: cell-based; settings: BAF1 50 nM, CQ 10 uM, in the presence of 10 nM Ctx-PEG12-cRGD for 6h
Experimental: MCF7 cells were seeded at 70% confluence in a 24-well plate and incubated in 350 μL complete culture media overnight. Cells were pre-treated with free excess cRGD-azide with concentrations indicated in the figure at 4° C. for 1 h before incubating with 10 nm Ctx-PEG12-cRGD for 8 h. Cells were then harvested for western blot.
MCF7 cells were seeded at 70% confluence in a 24-well plate and incubated in 350 μL complete culture media overnight. Cells were treated with lysosomal degradation inhibitor Bafilomycin A1 (BAF1) at 50 nM and Chloroquine (CQ) at 10 uM in the presence of 10 nM Ctx-PEG12-cRGD for 6h.

α5β1 = α5β1 (Homo sapiens, UniProt P05556+P08648); settings: Kapp et al., 2017; one range given for αvβ5, αvβ6, α5β1; cited from earlier work
α5β1, sequence (P08648 42-894 limits assumed): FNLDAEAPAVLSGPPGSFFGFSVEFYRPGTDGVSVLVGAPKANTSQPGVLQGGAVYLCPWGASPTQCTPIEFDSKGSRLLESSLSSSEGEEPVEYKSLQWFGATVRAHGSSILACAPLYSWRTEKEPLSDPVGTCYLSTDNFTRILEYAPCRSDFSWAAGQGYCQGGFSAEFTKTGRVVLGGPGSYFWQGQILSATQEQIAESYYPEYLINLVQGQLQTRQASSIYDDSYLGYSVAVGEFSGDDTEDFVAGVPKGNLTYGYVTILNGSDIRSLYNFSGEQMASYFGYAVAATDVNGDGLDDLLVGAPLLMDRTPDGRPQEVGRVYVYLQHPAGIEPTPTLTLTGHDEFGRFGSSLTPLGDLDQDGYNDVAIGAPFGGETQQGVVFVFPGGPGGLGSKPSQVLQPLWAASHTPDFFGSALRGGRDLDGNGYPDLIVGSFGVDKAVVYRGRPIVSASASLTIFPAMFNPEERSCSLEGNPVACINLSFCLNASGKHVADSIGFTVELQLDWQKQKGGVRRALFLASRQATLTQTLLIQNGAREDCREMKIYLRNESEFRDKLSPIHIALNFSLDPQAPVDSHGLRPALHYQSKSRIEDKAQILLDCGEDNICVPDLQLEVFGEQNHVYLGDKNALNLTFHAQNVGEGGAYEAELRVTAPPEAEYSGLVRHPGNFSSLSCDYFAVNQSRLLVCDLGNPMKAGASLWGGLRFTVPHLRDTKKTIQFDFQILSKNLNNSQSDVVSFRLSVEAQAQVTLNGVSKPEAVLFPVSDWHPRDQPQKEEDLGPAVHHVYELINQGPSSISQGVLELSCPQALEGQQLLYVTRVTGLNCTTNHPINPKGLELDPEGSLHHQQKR
α5β1, sequence (P08648 895-995 partner limits assumed): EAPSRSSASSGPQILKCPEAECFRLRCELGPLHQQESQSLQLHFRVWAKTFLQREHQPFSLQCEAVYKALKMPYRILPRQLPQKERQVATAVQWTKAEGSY
α5β1, sequence (P05556 21-728 limits assumed): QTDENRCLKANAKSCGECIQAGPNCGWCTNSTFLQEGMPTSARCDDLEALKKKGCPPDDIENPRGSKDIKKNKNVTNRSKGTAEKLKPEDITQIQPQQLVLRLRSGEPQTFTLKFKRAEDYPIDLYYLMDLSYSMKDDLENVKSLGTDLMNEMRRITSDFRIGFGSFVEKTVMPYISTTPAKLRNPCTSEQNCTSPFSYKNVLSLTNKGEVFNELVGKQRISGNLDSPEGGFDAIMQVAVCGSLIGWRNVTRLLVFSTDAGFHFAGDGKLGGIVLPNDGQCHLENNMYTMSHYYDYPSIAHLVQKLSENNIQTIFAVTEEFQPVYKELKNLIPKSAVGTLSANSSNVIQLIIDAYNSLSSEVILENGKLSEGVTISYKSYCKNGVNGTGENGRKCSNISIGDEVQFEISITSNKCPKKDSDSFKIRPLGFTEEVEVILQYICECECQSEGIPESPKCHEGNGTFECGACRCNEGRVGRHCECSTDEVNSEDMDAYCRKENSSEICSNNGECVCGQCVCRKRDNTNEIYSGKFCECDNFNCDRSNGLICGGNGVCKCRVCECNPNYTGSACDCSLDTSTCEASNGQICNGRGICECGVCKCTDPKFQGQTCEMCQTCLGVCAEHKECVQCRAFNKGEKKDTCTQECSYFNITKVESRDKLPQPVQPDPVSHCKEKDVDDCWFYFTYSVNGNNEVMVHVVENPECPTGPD

Row | Compound | inhibition of lysosomal degradation of anti-biotin-647 (FIG. 14) (anti-biotin-647) | inhibition of EGFR degradation by lysosomal degradation inhibitors (FIG. 16) (EGFR) | binding to α5β1 (α5β1)
1 | CO/C1=C\C(C)=C\[C@@H](C)[C@@H](O)[C@@H](C)C/C(C)=C/C=C/[C@H](OC)[C@@H]([C@@H](C)[C@@H](O)[C@H](C)[C@@]2(O)C[C@@H](O)[C@H](C)[C@@H](C(C)C)O2)OC1=O [Bafilomycin A1] | inhibition of lysosomal degradation of anti-biotin-647 | inhibition of EGFR degradation | –
2 | CCN(CC)CCCC(C)Nc1ccnc2cc(Cl)ccc12 (stereo not shown) [Chloroquine] | – | inhibition of EGFR degradation | –
3 | cyclo(Arg-Gly-Asp-D-Phe-Lys) [cRGD] | – | – | 50 to 350 nM
